Data reported in US20190358974A1, “COMPOSITIONS AND PARTICLES CONTAINING CELLULOSIC FIBERS AND STABILIZED- AND/OR ACTIVATED- UREASE INHIBITORS, AS WELL AS METHODS OF MAKING AND USING THE SAME” (INTERNATIONAL PAPER COMPANY, priority 2016, published 2019).

Assays:
[1] = tested on: Proteus mirabilis ATCC #7002; assay: Bacterial ammonia test: NH3 in headspace over fluff/SAP pad inoculated with bacteria in synthetic urine; type: cell-based; details: 400 ppm PPDA inside cellulosic pulp, stored dry at ambient conditions, 20 weeks
Text: Test Pad Sample Preparation • 1. Place a non-woven carrier on the 50 mm diameter SCAN pad former screen, attach tube, tare, and place on SCAN test piece former. • 2. Weigh out 0.60 gm fiberized pulp. Fibers should be “fluffy”, well dispersed, and spread evenly in the weighing pan. • 3. Sprinkle 0.40 gm SAP evenly over the fiber. • 4. Start the vacuum and feed the SAP/fiber into the forming cone through the feed tube, ensuring that both materials are simultaneously introduced. • 5. Remove the pad assembly from the former and weigh. Lightly compress the pad and remove the tube. • 6. Lift the non-woven carrier with the pad off of the screen. • 7. Press to ˜3 mm • 8. Seal pad wrapped in non-woven in a plastic ziplok bag until testing.
This is the Test Inoculum Solution.
At the end of the designated exposure period, the ammonia in the headspace of the sealed jar is measured using the Drager system. The sampling end of the Drager tube is fitted with a needle which is inserted through the septum. A vent needle is inserted to allow withdrawal of the gaseous sample. The opposite end of the measuring tube is attached to the Drager pump. Ammonia is withdrawn according to the manufacturer specifications for the tube and the measurement recorded.
The PPDA treated pulp was then shredded by a lab hammermill to convert into fluff fibers. […]

[2] = Aging/degradation of PPDA on dry pulp, PPDA remaining tested by HPLC; type: physicochemical; details: 400 ppm PPDA on pulp stored on shelf as dry pulp, ambient conditions
Protocol: Bleached softwood pulp sheets were treated (sprayed) respectively with: 1) 400 ppm PPDA on pulp from water solution; 2) 400 ppm PPDA on pulp from PEG-200 solution; 3) 400 ppm PPDA on pulp from solution of 90% PEG-200 and 10% Talc powder. All the samples were dried on a dryer can at 195 F. They were then stored under room temperature (23 C) and 50% humidity chamber. The PPDA content remaining in the dry pulp samples was tested by HPLC.
They were then put into a controlled chamber with temperature of 55 C and 50% relative humidity. The PPDA content remaining in the dry pulp samples was tested by HPLC.
Accelerated aging study was done at 35 C and 50% RH with individual sheets thoroughly exposed to the environment. The control PPDA doses were 400 ppm and 1000 ppm based on the weight of the sheet, applied with water solution and dried. And the stabilized PPDA doses were also at 400 ppm and 1000 ppm on sheet, applied with 2% PPDA solution in PEG-200. The results are shown in the table below, and plotted in FIG. 4.
Aging test was also conducted on-shelf in the bag at room conditions. The result was shown in Table 12, and plotted in FIG. 5 in log scale.

[3] = cited from earlier work

NP(N)(=O)Oc1ccccc1 [PPDA, phenylphosphorodiamidate]
effectiveness against ammonia generation [1]: lost all its effectiveness against ammonia generation | stability inside cellulosic pulp [2]: not stable | stability of dry PPDA ([3]; dry): stable | stability in water ([3]; in water): not stable
